Assay [1] concerns p62-positive and WIPI2-positive punctate structures. In words: ICC of WIPI2-p62 co-localization in HeLa cells. Format: cell-based. To be noted: HeLa, endogenous WIPI2, 2.5 μM, 24 h. As to the method:
(§1) Cells were cultured on coverslips coated with poly-L-lysine (Sigma) to observe cellular localization of proteins. Using 4% paraformaldehyde in PBS (pH 7.4), the cells were fixed for 15 min at room temperature and washed three times for 5 min with PBS. After fixing, the cells were permeabilized with 0.5% Triton X-100 in PBS solution for 15 min and washed three times with PBS for 5 min. The cells were blocked containing 2% BSA in PBS solution for 1 h at room temperature. Subsequently, the cells were incubated with primary antibody diluted in 2% BSA/PBS solution overnight at 4 °C, followed by washing the cells three times for 10 min with PBS and incubated with Alexa Fluor-conjugated secondary antibody diluted in 2% BSA/PBS for 30 min at room temperature. Using a DAPI-containing mounting medium (Vector Laboratories), the coverslips were mounted on glass slides. Confocal images were taken by laser scanning confocal microscope 510 Meta (Zeiss) and analyzed by Zeiss LSM Image Browser (ver. 4.2.0.121). […] Quantification results are shown as mean ± S.D. or S.E.M. of three independent experiments
Supplementary Fig. 2. Characterization of p62-ZZ ligands (a, c, e) 3-D modeling of p62 […]
μM, 6 h). (m) Quantification of l for co-localization (n=3, 50 cells). Scale bar, 10 µm. (n) […]

A further assay addresses T1, p62 (Homo sapiens, UniProt Q13501).
T1 construct: expressed in transfected cells; host or cells: HEK293T, transient; whole lysate used
As to the kind of experiment: In vitro pulldown assay with biotinylated p62 ligands. As to conditions: biotinylated ligand, HEK293T extracts. Format: binding. As to the method: A set of synthetic 12-mer peptides corresponding to the N-terminal sequences of the V-BiP (V[19]-[…]-biotin) and V-RGS4 (V^2-[…]-biotin) was C-terminally biotin-conjugated. Alternatively, biotinylated versions of YOK-1304, YT-8-8, YTK-1105, YOK-2204, and PBA were synthesized. To cross-link the above peptides with resin beads, biotin-conjugated peptides, and small molecule were mixed with high-capacity streptavidin agarose resin (Thermo Fisher Scientific) at a ratio of 0.5 mg of peptide per 1 mL of settled resin and incubated on a rotator at 4 °C overnight. After washing five times with PBS, the peptide/small molecule-bead conjugates were diluted with PBS at a 1:1 ratio. To prepare protein extracts, cells were collected by centrifugation and lysed by freezing and thawing at least 10 times in hypotonic buffer [10 mM KCl, 1.5 mM MgCl2, and 10 mM HEPES (pH 7.9)] with a protease inhibitor mix (Sigma). After centrifugation at 15,000 rpm 4 °C for 15 min, proteins were quantified using a BCA protein assay kit (Thermo Fisher Scientific). Total protein (200 μg) diluted in 300 μL of binding buffer [0.05% Tween-20, 10% glycerol, 0.2 M KCl, and 20 mM HEPES (pH 7.9)] were mixed with 50 μL of peptide/small molecule-bead resin and incubated at 4 °C for 2 h on a rotator. The protein-bound beads were collected by centrifugation at 2400 × g for 3 min and washed five times with binding buffer. The beads were resuspended in 25 μL of SDS sample buffer, heated at 95 °C for 5 min, and subjected to SDS/PAGE and immunoblotting.

The subject of assay [2] is p62 and the lysosomal marker LAMP1. In words: ICC of LAMP1-p62 co-localization in HeLa cells. Format: cell-based. To be noted: 2.5 μM, 24 h. As to the method: as §1, with “experiments […]” for “experiments”
Supplementary Fig. 2. Characterization of p62-ZZ ligands (a, c, e) 3-D modeling of p62 ZZ ligands YOK-1304, YOK-2204 and YTK-105, respectively. (b, d, f) 2-D diagram for YOK-1304, YOK-2204 and YTK-105, respectively. (g,h) ICC of HeLa cells treated with the indicated compounds (2.5 μM, 24 h). Scale bar, 10 μm. (i) Quantification of h for co-localization (n=3, 50 cells). (j) ICC of HeLa cells treated with the indicated compounds (2.5 μM, 24 h). Scale bar, 10 μm. (k) Quantification of j for co-localization (n=3, 50 cells). (l) ICC of HeLa cells transiently expressing WIPI2-GFP and treated with the indicated compounds (2.5 μM, 6 h). (m) Quantification of l for co-localization (n=3, 50 cells). Scale bar, 10 µm. (n) […]

“And” between values parts separate entries of the source, which are not always exact repeats. Equal entries are not always repeated.

T1 sequence (Q13501 whole entry): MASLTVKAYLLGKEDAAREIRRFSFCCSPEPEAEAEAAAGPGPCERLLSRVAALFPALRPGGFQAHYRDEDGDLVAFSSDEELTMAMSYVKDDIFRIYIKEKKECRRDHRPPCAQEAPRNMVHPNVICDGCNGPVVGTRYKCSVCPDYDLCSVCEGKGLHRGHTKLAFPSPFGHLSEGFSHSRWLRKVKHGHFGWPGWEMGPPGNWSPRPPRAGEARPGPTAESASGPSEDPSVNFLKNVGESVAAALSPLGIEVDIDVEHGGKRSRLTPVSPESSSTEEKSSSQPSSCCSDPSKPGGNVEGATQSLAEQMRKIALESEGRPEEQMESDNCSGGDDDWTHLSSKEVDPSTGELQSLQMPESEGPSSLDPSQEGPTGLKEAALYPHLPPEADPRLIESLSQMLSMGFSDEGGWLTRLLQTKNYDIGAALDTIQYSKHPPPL

`OCCNCCNCc1cccc(OCc2ccc(F)cc2)c1` [YT-8-8]: in assay [1], the “WIPI2-p62 colocalization, AVG of cells of 50” value was 43.3333 and the “WIPI2-p62 colocalization, percentage AVG” value came to 86.6667%. Also, the “WIPI2-p62 colocalization, cells of 50 cells counted” value in assay [1] (single experiments) was 42 and 39 and 49. Besides, the “binding of p62 in pulldown” value on p62 is “bound”. Moreover, in assay [2], the “LAMP1-p62 colocalization, AVG of cells of 50” value worked out at 33 and the “LAMP1-p62 colocalization, percentage AVG” value was found to be 66%. Further, the “LAMP1-p62 colocalization, cells of 50 cells counted” value in assay [2] (single experiments) was 32 and 38 and 29.

(Values after paper PMC8850458, “The AUTOTAC chemical biology platform for targeted protein degradation via the autophagy-lysosome system” (Nature Communications, 2022).)
